In PubChem BioAssay (NCI):
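Step 1: Grow cells in 96-well plates. Step 2: Expose to compound for 48 hours at 5 concentrations. Step 3: Interpolate endpoints linearly; if unreached, use highest concentration. Here, GI50 denotes the concentration required for 50% inhibition of growth. Definition used: TGI = concentration required for complete inhibition of growth.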

Columns and labels:
Assay in all cases: NCI-60 cell line screen, 48 h
A498 renal = tested on: A498 renal
HCC-2998 colon = tested on: HCC-2998 colon
HCT-15 colon = tested on: HCT-15 colon
IGROV1 ovarian = tested on: IGROV1 ovarian
M14 melanoma = tested on: M14 melanoma
OVCAR-8 ovarian = tested on: OVCAR-8 ovarian
SW-620 colon = tested on: SW-620 colon
TK-10 renal = tested on: TK-10 renal
UACC-257 melanoma = tested on: UACC-257 melanoma
MALME-3M melanoma = tested on: MALME-3M melanoma

## ClCc1cccc(CSc2ncnc3c2ncn3Cc2cccc(CCl)c2)c1
A498 renal
  GI50: 11.1 µM
  TGI: 23.6 µM
HCC-2998 colon
  GI50: 1.71 µM
  TGI: 3.13 µM
HCT-15 colon
  GI50: 1.71 µM
  TGI: 3.42 µM
IGROV1 ovarian
  GI50: 1.95 µM
  TGI: 4.51 µM
M14 melanoma
  GI50: 1.71 µM
  TGI: 3.23 µM
OVCAR-8 ovarian
  GI50: 2.11 µM
  TGI: 6.24 µM
SW-620 colon
  GI50: 1.69 µM
  TGI: 3.47 µM
TK-10 renal
  GI50: 1.93 µM
  TGI: 3.61 µM
UACC-257 melanoma
  GI50: 1.74 µM
  TGI: 3.37 µM

## NC1Cc2ccccc2OC1=O (configuration not stated)
HCC-2998 colon
  TGI: > 100 µM
HCT-15 colon
  TGI: > 100 µM
IGROV1 ovarian
  TGI: > 100 µM
M14 melanoma
  TGI: > 100 µM
MALME-3M melanoma
  TGI: > 100 µM
OVCAR-8 ovarian
  TGI: > 100 µM
SW-620 colon
  TGI: > 100 µM
TK-10 renal
  TGI: > 100 µM
UACC-257 melanoma
  TGI: > 100 µM

## CC/C=C/C[C@H](O)[C@H]1C[C@H]2O[C@H](CC(=O)OC)C[C@H]2O1
A498 renal
  TGI: > 100 µM
HCC-2998 colon
  TGI: > 100 µM
HCT-15 colon
  TGI: > 100 µM
IGROV1 ovarian
  TGI: > 100 µM
M14 melanoma
  TGI: > 100 µM
MALME-3M melanoma
  TGI: > 100 µM
OVCAR-8 ovarian
  TGI: > 100 µM
SW-620 colon
  TGI: > 100 µM

## CO[C@@H]1C[C@H](OC(N)=O)[C@@H]2C=C[C@@H]3/C=C(C)/C=C/[C@@H](C)[C@H](/C(C)=C/[C@@H](C)NC(C)=O)OC(=O)/C=C/C=C(C)\C=C\[C@]3(C)[C@@H]2C1
A498 renal
  TGI: 0.0867 µM
HCC-2998 colon
  TGI: 0.664 µM
HCT-15 colon
  TGI: 0.717 µM
IGROV1 ovarian
  TGI: 0.471 µM
M14 melanoma
  TGI: 0.912 µM
MALME-3M melanoma
  TGI: 0.798 µM
OVCAR-8 ovarian
  TGI: 50 µM
SW-620 colon
  TGI: 1.24 µM
UACC-257 melanoma
  TGI: 0.0866 µM

## O=C1CSC2=NC3=C(CSC/C3=C\c3ccccc3)C(c3ccccc3)N12 (configuration not stated)
HCC-2998 colon
  TGI: > 100 µM
HCT-15 colon
  TGI: > 100 µM
IGROV1 ovarian
  TGI: > 100 µM
M14 melanoma
  TGI: > 100 µM
MALME-3M melanoma
  TGI: > 100 µM
OVCAR-8 ovarian
  TGI: > 100 µM
SW-620 colon
  TGI: > 100 µM
TK-10 renal
  TGI: > 100 µM
UACC-257 melanoma
  TGI: > 100 µM

## CCC(O)c1ccc(N=Cc2ccccc2O)cc1 (configuration not stated)
A498 renal
  TGI: > 100 µM
HCC-2998 colon
  TGI: > 100 µM
HCT-15 colon
  TGI: > 100 µM
IGROV1 ovarian
  TGI: > 100 µM
M14 melanoma
  TGI: > 100 µM
MALME-3M melanoma
  TGI: > 100 µM
SW-620 colon
  TGI: > 100 µM
TK-10 renal
  TGI: > 100 µM

## O=C(Nc1nnc(-c2c(Cl)c(Cl)c(Cl)c(Cl)c2-c2nc3cc(C(=O)c4ccccc4)ccc3[nH]2)o1)c1ccc(Cl)cc1
A498 renal
  TGI: 43.4 µM
HCT-15 colon
  TGI: > 100 µM
IGROV1 ovarian
  TGI: > 100 µM
M14 melanoma
  TGI: > 100 µM
OVCAR-8 ovarian
  TGI: > 100 µM
SW-620 colon
  TGI: > 100 µM
TK-10 renal
  TGI: > 100 µM
UACC-257 melanoma
  TGI: > 100 µM

## COc1ccc2nc3n(c2c1)C(=O)c1ccccc1-3
HCC-2998 colon
  TGI: > 100 µM
HCT-15 colon
  TGI: > 100 µM
IGROV1 ovarian
  TGI: > 100 µM
M14 melanoma
  TGI: > 100 µM
MALME-3M melanoma
  TGI: > 100 µM
OVCAR-8 ovarian
  TGI: > 100 µM
SW-620 colon
  TGI: > 100 µM
TK-10 renal
  TGI: > 100 µM
UACC-257 melanoma
  TGI: > 100 µM

## COc1nc2c(c(=O)n1C)N=C(c1ccc(Cl)cc1)CC(c1ccccc1)N2 (configuration not stated)
A498 renal
  TGI: > 100 µM
HCC-2998 colon
  TGI: 35.8 µM
HCT-15 colon
  TGI: 30.4 µM
IGROV1 ovarian
  TGI: 51.5 µM
M14 melanoma
  TGI: > 100 µM
OVCAR-8 ovarian
  TGI: > 100 µM
SW-620 colon
  TGI: > 100 µM
UACC-257 melanoma
  TGI: 67.9 µM

## COC1CCC(=O)N1CN(C(C)=O)c1ccc(C)cc1 (configuration not stated)
HCC-2998 colon
  TGI: > 100 µM
HCT-15 colon
  TGI: > 100 µM
M14 melanoma
  TGI: > 100 µM
OVCAR-8 ovarian
  TGI: > 100 µM
SW-620 colon
  TGI: > 100 µM
TK-10 renal
  TGI: > 100 µM
UACC-257 melanoma
  TGI: > 100 µM

## COP(=O)(OC)/C(=C/c1cn(C(c2ccccc2)(c2ccccc2)c2ccccc2)cn1)NC=O
A498 renal
  TGI: 32 µM
HCC-2998 colon
  TGI: 33.3 µM
HCT-15 colon
  TGI: 99.4 µM
IGROV1 ovarian
  TGI: 44.1 µM
M14 melanoma
  TGI: 34.4 µM
MALME-3M melanoma
  TGI: 38.5 µM
OVCAR-8 ovarian
  TGI: 60.4 µM
SW-620 colon
  TGI: 78.1 µM
TK-10 renal
  TGI: 46.3 µM
